{
  "source": "paper PMC6120666",
  "about": "(The EMBO Journal, 2018)",
  "key": {"[1]": {"molecular_target": "T1, XIAP BIR2 - RIPK2 interaction (Homo sapiens, UniProt O43353)", "T1 construct": "U2OS/NOD2 cells were lysed in TBS lysis buffer; endogenous in cells; host or cells: U2OS/NOD2 cell lysate (RIPK2); E. coli BL21 (GST-BIR2-XIAP)", "assay": "GST-BIR2-XIAP pulldown of RIPK2", "type": "binding", "conditions": "for pulldown of RIPK2 by GST-BIR2-XIAP from cell lysates: U2OS/NOD2 lysates, inhibitors at 100-fold IC50 of RIPK2 kinase activity; for GST-BIR2-XIAP binding to recombinant RIPK2 kinase domain: recombinant human RIPK2 KD (dephosphorylated), same inhibitor concentrations", "description": "For co‐immunoprecipitation of HA‐XIAP with RIPK2, transfected and treated cells were lysed in TBS buffer containing 0.5% NP‐40, cOmplete and PhosSTOP inhibitors (Roche) and the lysate was cleared by centrifugation. The lysates were incubated with anti‐HA‐agarose overnight, washed 3× with lysis buffer, and analyzed by immunoblotting. For GST pulldown experiments, U2OS/NOD2 cells were lysed in TBS lysis buffer containing 0.5% NP‐40, cOmplete and PhosSTOP inhibitors (Roche). Cleared lysates were pretreated with kinase inhibitors or DMSO and incubated with GST‐XIAP‐BIR2 bound to Glutathione Sepharose at 4°C overnight. Bound material was washed 3× with lysis buffer or PBS, eluted with 15 mM Glutathione in PBS, and analyzed by immunoblotting. […] The bound material was eluted and analyzed as described above.\nFor coimmunoprecipitation of HA-XIAP with RIPK2, transfected and treated cells were lysed in TBS buffer containing 0.5% NP-40, cOmplete and PhosSTOP inhibitors (Roche) and the lysate was cleared by centrifugation. The lysates were incubated with anti-HA-agarose overnight, washed 3x with lysis buffer and analyzed by immunoblotting. For GST pull-down experiments, U2OS/NOD2 were lysed in TBS lysis buffer containing 0.5% NP-40, cOmplete and PhosSTOP inhibitors (Roche).\nCleared lysates were pretreated with kinase inhibitors or DMSO and incubated with GST-XIAP-BIR2 bound to Glutathione Sepharose at 4 °C overnight. Bound material was washed 3x with lysis buffer or PBS, eluted with 15 mM Glutathione in PBS and analyzed by immunoblotting. In pull-down […]\ninhibitors or DMSO control in PBS were added together with RIPK2 kinase domain to GST-XIAP-BIR2 bound to Glutathione Sepharose. The bound material was eluted and analyzed as described above. […]"}, "NOD2/HEKBlue cells": {"tested_on": "NOD2/HEKBlue cells", "assay": "hNOD2-HEKBlue L18-MDP-induced NF-κB reporter assay", "type": "cell-based, human", "conditions": "for IC50: Homo sapiens, HEK-Blue, L18-MDP-induced NF-κB reporter, average ± SD of at least three titrations", "description": "For HEKBlue assay, cells were seeded into clear 96‐well plates at 7.5 × 10^3 cells/well and allowed to attach for 48 h. On the day of the experiment, media was changed to 100 μl of HEKBlue detection media (InvivoGen). Inhibitors were diluted and added in 0.5 μl DMSO 15 min prior to the addition of 1 ng/ml L18‐MDP (InvivoGen). After 8–9 h, absorbance at 620 nm was measured using Victor3V plate reader (Perkin Elmer, Waltham, MA). Values of media‐only wells were subtracted and %inhibition for each compound concentration relative to the DMSO/L18‐MDP‐treated controls was calculated. Inhibition values ± SD were fitted by non‐linear regression using Prism software (GraphPad Software, La Jolla, CA) to calculate IC50 values. For THP1Blue assay, 1 × 10^5 cells were seeded in 200 μl of RPMI media in 96‐well plates and treated with inhibitors in 0.5 μl DMSO for 15 min prior to the addition of 10 μg/ml MDP, 10 ng/ml Pam3CSK4, 10 ng/ml E. coli LPS, or 1 × 10^7 cells/ml heat‐killed L. monocytogenes (InvivoGen) for 24 h. After induction, 20 μl of media was mixed with 180 μl of QUANTI‐Blue reagent (InvivoGen) and incubated at 37°C for 3–4 h, followed by absorbance measurement at 620 nm. IC50 values were calculated as described for HEKBlue assay.\nCayman Chemical Company, Ann Arbor, MI), GSK583 (#HY-100339, MedChem Express, South Brunswick, NJ), WEHI-345 (MedKoo Biosciences, Morrisville, NC), Compound A (CpA, a kind gift from TetraLogic Pharmaceuticals, Malvern, PA). Generation of the CSLP compound series is described in Suebsuwong et al. 2018 (manuscript in preparation). hNOD2-HEKBlue and THP1Blue assays\nFor HEKBlue assay, cells were seeded into clear 96 well plates at 7.5x10^3 cells/well and allowed to attach for 48 h. On the day of the experiment, media was changed to 100 μl of HEKBlue detection media (InvivoGen). Inhibitors were diluted and added in 0.5 μl DMSO 15 min prior to the addition of 1 ng/ml L18-MDP (InvivoGen). After 8-9 h, absorbance at 620 nm was measured using Victor3V plate reader (Perkin Elmer, Waltham, MA). Values of media-only wells were subtracted and %inhibition for each compound concentration relative to the DMSO/L18-MDP-treated controls were calculated.\nInhibition values + StDev were fitted by non-linear regression using Prism software (GraphPad Software, La Jolla, CA) to calculate IC50 values. For THP1Blue assay, 1x10^5 cells were seeded in 200 μl of RPMI media in 96 well plates and treated with inhibitors in 0.5 μl DMSO 15 min prior to the addition of 10 µg/ml MDP, 10 ng/ml Pam3CSK4, 10 ng/ml E. coli LPS or 1x10^7 cells/ml heat-killed L. monocytogenes (InvivoGen) for 24 h. After induction, 20 μl of media was mixed with 180 μl of QUANTI-Blue reagent (InvivoGen) and incubated at 37 °C for 3-4 h, followed by absorbance measurement at 620 nm. IC50 values were calculated as described for HEKBlue assay. […]"}, "U2OS/NOD2 cells": {"tested_on": "U2OS/NOD2 cells", "assay": "Intracellular flow cytometry of CXCL8 after L18-MDP", "type": "cell-based, human", "conditions": "L18-MDP 200 ng/ml, 4 h; for inhibition of NOD2 signaling (CXCL8) in cells expressing RIPK2 T95W: U2OS/NOD2 RIPK2 KO cells reconstituted with T95W gatekeeper mutant; for L18-MDP-induced CXCL8 production: U2OS/NOD2 cells", "description": "Purified material and lysates were analyzed by immunoblotting. […] Numbering below schematic refers to amino acid residues in human RIPK2 and indicate domain boundaries. […] Data information: Data in (A, B, D, H) represent the mean ± SEM of 2–4 independent experiments, each performed in duplicate. […] Two‐way ANOVA was used to determine statistical significance. See also Fig EV1.Source data are available online for this figure.\nDark gray represents areas occupied by RIPK2; white areas indicate empty spaces in CSLP binding pocket. […] Dotted black box indicates region shown for models with CSLP37 and CSLP43. • Molecular docking model of RIPK2 kinase domain in complex with CSLP43 (green) based on RIPK2/CSLP18 structure from (D). […] Two‐way ANOVA was used to determine statistical significance. See also Fig EV2.\nGST-BIR2-XIAP as indicated. Intensity quantification of SPOTs was performed using ImageJ software\nDual luciferase reporter assay\nIntracellular flow cytometry of CXCL8\nfor cell death) or vehicle for 24h. Viability was determined using the CellTiter-Glo® luminescent cell\ntogether with Transfection Carrier DNA (Promega).\nAfter addition of Nano-Glo"}},
  "data": [
    {"smiles": "CCCS(=O)(=O)Nc1cc(-c2cc(-c3ccc(N4CCNCC4)cc3)cnc2N)cc(F)c1OC", "note": "[CSLP37]", "values": [
      {"measurement": "pulldown of RIPK2 by GST-BIR2-XIAP from cell lysates", "setting": "[1]", "value": "efficiently antagonized"},
      {"measurement": "GST-BIR2-XIAP binding to recombinant RIPK2 kinase domain", "setting": "[1]", "value": "still antagonized"},
      {"measurement": "IC50", "setting": "NOD2/HEKBlue cells", "value": "26.3 ± 3.7", "unit": "nM"},
      {"measurement": "inhibition of NOD2 signaling (CXCL8) in cells expressing RIPK2 T95W", "setting": "U2OS/NOD2 cells", "value": "no longer observed"},
      {"measurement": "L18-MDP-induced CXCL8 production", "setting": "U2OS/NOD2 cells", "value": "potent suppression"}
    ]},
    {"smiles": "CCCS(=O)(=O)Nc1cc(-c2cc(-c3ccc(N4CCNCC4)cc3)cnc2N)cc(OC)c1OC", "note": "[CSLP43]", "values": [
      {"measurement": "pulldown of RIPK2 by GST-BIR2-XIAP from cell lysates", "setting": "[1]", "value": "efficiently antagonized"},
      {"measurement": "GST-BIR2-XIAP binding to recombinant RIPK2 kinase domain", "setting": "[1]", "value": "still antagonized"},
      {"measurement": "IC50", "setting": "NOD2/HEKBlue cells", "value": "1.3 ± 0.4", "unit": "nM"},
      {"measurement": "inhibition of NOD2 signaling (CXCL8) in cells expressing RIPK2 T95W", "setting": "U2OS/NOD2 cells", "value": "no longer observed"},
      {"measurement": "L18-MDP-induced CXCL8 production", "setting": "U2OS/NOD2 cells", "value": "potent suppression"}
    ]},
    {"smiles": "CCCS(=O)(=O)Nc1cc(-c2cc(-c3ccc(N4CCNCC4)cc3)cnc2N)ccc1O", "note": "[CSLP48]", "values": [
      {"measurement": "pulldown of RIPK2 by GST-BIR2-XIAP from cell lysates", "setting": "[1]", "value": "little effect"},
      {"measurement": "IC50", "setting": "NOD2/HEKBlue cells", "value": "> 5000", "unit": "nM"},
      {"measurement": "inhibition of NOD2 signaling (CXCL8) in cells expressing RIPK2 T95W", "setting": "U2OS/NOD2 cells", "value": "not negatively impacted"}
    ]},
    {"smiles": "COc1cc(-c2cc(-c3ccc(N4CCNCC4)cc3)cnc2N)cc(F)c1OC", "note": "[CSLP55]", "values": [
      {"measurement": "pulldown of RIPK2 by GST-BIR2-XIAP from cell lysates", "setting": "[1]", "value": "little effect"},
      {"measurement": "IC50", "setting": "NOD2/HEKBlue cells", "value": "595 ± 69.6", "unit": "nM"},
      {"measurement": "inhibition of NOD2 signaling (CXCL8) in cells expressing RIPK2 T95W", "setting": "U2OS/NOD2 cells", "value": "not negatively impacted"}
    ]},
    {"smiles": "Cc1ccc(-c2nn(C(C)(C)CNC(=O)c3ccncc3)c3ncnc(N)c23)cc1", "note": "[WEHI‐345, reference compound]", "values": [
      {"measurement": "IC50", "setting": "NOD2/HEKBlue cells", "value": 3370, "unit": "nM"},
      {"measurement": "fold lower cellular potency than against RIPK2 kinase in vitro", "setting": "NOD2/HEKBlue cells; Table 1, Fig 4A", "value": "> 10", "unit": "fold"}
    ]}
  ]
}
